The results in this text go back to patent US7402691B2, “Malononitrile compounds and their use as pesticides” (Sumitomo Chemical Company, Limited, priority 2001, dated 2008).

This test deals with Musca domestica. Nature of the test: Pesticidal test against Musca domestica, filter paper with sucrose bait (Test Example 6). The format is in vivo. The note with it: 500 ppm, 0.7 ml on filter paper, ten female adults, after 24 hours, read-out: mortality. On the procedure: Ten female adults of Musca domestics (house fly) were set free in the polyethylene cup, which was then kept covered. After 24 hours, their survival was examined to determine the mortality.

One may read the mortality as the share of the test organisms that died. Take `N#CC(C#N)(CCC(F)=C(F)F)Cc1ccccc1` [Compound 4, 2-benzyl-2-(3,4,4-trifluoro-3-butenyl)malononitrile]: the mortality at 500 ppm amounted to 100%.

For `N#CC(C#N)(CCC(F)(F)F)Cc1c(Cl)cc(C(F)(F)F)cc1Cl` [Compound 7, 2-(2,6-dichloro-4-(trifluoromethyl)benzyl)-2-(3,3,3-trifluoropropyl)malononitrile], the mortality at 500 ppm came to 100%.

For the molecule `N#CC(C#N)(CCC(F)(F)F)Cc1ccccc1` [Compound 12, 2-benzyl-2-(3,3,3-trifluoropropyl)malononitrile], the mortality at 500 ppm worked out at 100%.

With `N#CC(C#N)(CCC(F)(F)F)Cc1ccc(SC(F)(F)F)cc1` [Compound 13, 2-(4-(trifluoromethylthio)benzyl)-2-(3,3,3-trifluoropropyl)malononitrile], the mortality at 500 ppm is 100%.

With `N#CC(C#N)(CCC(F)(F)F)Cc1ccc(F)cc1` [Compound 16, 2-(4-fluorobenzyl)-2-(3,3,3-trifluoropropyl)malononitrile], the mortality at 500 ppm came out at 100%.

`N#CC(C#N)(CCC(F)(F)F)Cc1ccc([N+](=O)[O-])cc1` [Compound 18, 2-(4-nitrobenzyl)-2-(3,3,3-trifluoropropyl)malononitrile]: the mortality at 500 ppm was 100%.

In the case of `N#CC(C#N)(CCC(F)(F)F)Cc1ccc(I)cc1` [Compound 26, 2-(4-iodobenzyl)-2-(3,3,3-trifluoropropyl)malononitrile], the mortality at 500 ppm was 100%.

For the molecule `C=Cc1ccc(CC(C#N)(C#N)CCC(F)(F)F)cc1` [Compound 27, 2-(3,3,3-trifluoropropyl)-2-(4-vinylbenzyl)malononitrile], the mortality at 500 ppm turned out to be 100%.

In the case of `CCc1ccc(CC(C#N)(C#N)CCC(F)(F)F)cc1` [Compound 31, 2-(4-ethylbenzyl)-2-(3,3,3-trifluoropropyl)malononitrile], the mortality at 500 ppm amounted to 100%.

As to `CC(C)(C)c1ccc(CC(C#N)(C#N)CCC(F)(F)F)cc1` [Compound 33, 2-(4-t-butylbenzyl)-2-(3,3,3-trifluoropropyl)malononitrile], the mortality at 500 ppm was determined as 100%.

With `CC(C)c1ccc(CC(C#N)(C#N)CCC(F)(F)F)cc1` [Compound 35, 2-(4-isopropylbenzyl)-2-(3,3,3-trifluoropropyl)malononitrile], the mortality at 500 ppm was determined as 100%.

Take `CC(c1ccc(Cl)cc1)C(C#N)(C#N)CCC(F)(F)F` (stereo not shown) [Compound 42, 2-(1-(4-chlorophenyl)ethyl)-2-(3,3,3-trifluoropropyl)malononitrile]: the mortality at 500 ppm stood at 100%.

With `N#CC(C#N)(CCC(F)(F)F)Cc1ccc(F)cc1Cl` [Compound 44, 2-(2-chloro-4-fluorobenzyl)-2-(3,3,3-trifluoropropyl)malononitrile], the mortality at 500 ppm turned out to be 100%.

`Cc1cc(CC(C#N)(C#N)CCC(F)(F)F)ccc1[N+](=O)[O-]` [Compound 45, 2-(3-methyl-4-nitrobenzyl)-2-(3,3,3-trifluoropropyl)malononitrile]: the mortality at 500 ppm amounted to 100%.

With `N#Cc1ccc(CC(C#N)(C#N)CCF)cc1` [Compound 46, 2-(4-cyanobenzyl)-2-(2-fluoroethyl)malononitrile], the mortality at 500 ppm is 100%.

Regarding `N#CC(C#N)(CCC(F)=C(F)F)Cc1ccc(OC(F)(F)F)cc1` [Compound 49, 2-(3,4,4-trifluoro-3-butenyl)-2-(4-(trifluoromethoxy)benzyl)malononitrile], the mortality at 500 ppm was 100%.

Turning to `CC(c1ccc(Cl)cc1)C(C#N)(C#N)CCF` (stereo not shown) [Compound 53, 2-(1-(4-chlorophenyl)ethyl)-2-(2-fluoroethyl)malononitrile], the mortality at 500 ppm is 100%.

Take `N#CC(C#N)(CCC(F)=C(F)F)Cc1ccc(SC(F)(F)F)cc1` [Compound 54, 2-(3,4,4-trifluoro-3-butenyl)-2-(4-(trifluoromethylthio)benzyl)malononitrile]: the mortality at 500 ppm is 100%.

On to `N#CC(C#N)(CCF)Cc1ccc(F)cc1` [Compound 59, 2-(4-fluorobenzyl)-2-(2-fluoroethyl)malononitrile], for which the mortality at 500 ppm was determined as 100%.
